Measurements from the Deep4Chem optical property database.
One block for each compound: values may come before it.

Assay: solvent given as SMILES
[1] = in O=P(c1ccccc1)(c1ccccc1)c1ccccc1Oc1ccccc1P(=O)(c1ccccc1)c1ccccc1

emission maximum (in C1COCCO1): 590 nm
emission maximum (in CN(C)C=O): 607 nm
emission maximum (in CO): 624 nm
emission maximum (in CS(C)=O): 614 nm
emission maximum (in c1ccccc1): 598 nm
SMILES: O=C1/C(=C2\Sc3ccccc3C2=O)Sc2ccccc21

emission maximum (in ClCCl): 486 nm
SMILES: C(=C\c1c2ccccc2cc2ccccc12)/c1ccc(Oc2ccc3ccccc3c2-c2c(Oc3ccc(/C=C/c4c5ccccc5cc5ccccc45)cc3)ccc3ccccc23)cc1

emission maximum (in ClCCl): 465 nm
SMILES: CC(C)(C)c1cc2ccc3c(N(c4ccc(F)cc4)c4ccc(F)cc4)cc(N(c4ccc(F)cc4)c4ccc(F)cc4)c4ccc(c1)c2c34

emission maximum (in CS(C)=O): 438 nm
SMILES: COc1cc2sc3nc(-c4ccccc4OC)sc3c2cc1OC

emission maximum (in CCO): 527 nm
SMILES: CCOC(=O)c1cc(C(=O)OCC)c2cccc(O)c2n1

emission maximum (in ClCCl): 360 nm
SMILES: c1ccc(-n2c3ccccc3c3cc(-c4cccc(-n5c6ccccc6c6ncccc65)c4)ccc32)cc1

emission maximum (in CC#N): 407 nm
SMILES: C[n+]1ccc2c(ccc3c[n+](C)ccc32)c1

emission maximum (in ClC(Cl)Cl): 463.2 nm
SMILES: F[B-]1(F)OC(c2ccccc2)=Cc2c3ccccc3cc[n+]21

emission maximum (in C1CCCCC1): 435 nm
emission maximum (in CC#N): 588 nm
emission maximum (in CC(C)O): 611.34 nm
emission maximum (in CO): 676 nm
emission maximum (in CS(C)=O): 587.85 nm
emission maximum (in ClC(Cl)Cl): 524 nm
emission maximum (in c1ccccc1): 487.85 nm
SMILES: CC(=O)c1ccc(-c2nc3ccc(N(C)C)cc3s2)cc1

emission maximum (in ClC(Cl)Cl): 385 nm
SMILES: c1ccc2c(-c3ccc(-n4c5ccccc5c5ccccc54)cc3)c3c(nc2c1)-c1cc2c(cc1CC3)-c1nc3ccccc3c(-c3ccc(-n4c5ccccc5c5ccccc54)cc3)c1CC2

emission maximum (in ClCCl): 408 nm
SMILES: CCOC(=O)c1c(-c2cc3ccccc3oc2=O)nn(-c2ccc(C)c(C)c2)c1C(=O)OCC

emission maximum (in ClCCl): 591 nm
SMILES: CCCc1ccc(C#Cc2cc(C#Cc3ccc(N(C)C)cc3)c3ccc4c(C#Cc5ccc(N(C)C)cc5)cc(C#Cc5ccc(CCC)cc5)c5ccc2c3c54)cc1

emission maximum (in ClCCl): 441 nm
SMILES: C(S/C=C/c1ccc(-c2ccc(/C=C/SC=C(c3ccccc3)c3ccccc3)cc2)cc1)=C(c1ccccc1)c1ccccc1

emission maximum (in C1CCCCC1): 470 nm
SMILES: CN(C)c1ccc(/C=C/C=C/C=C/c2ccc(B(O)O)cc2)cc1

emission maximum (in ClC(Cl)Cl): 396 nm
SMILES: COc1cc(-c2cc(-c3ccccc3)c(-c3ccccc3)c(-c3ccccc3)c2-c2ccccc2)c(OC)cc1-c1ccc(N(C)C)cc1

emission maximum (in C1CCCCC1): 390 nm
emission maximum (in CO): 405 nm
SMILES: Cc1ccc(/C=C/c2nc3ccccc3s2)cc1

emission maximum (in O): 592 nm
SMILES: CC[n+]1c(-c2ccccc2)c2cc(N)ccc2c2ccc(-n3cccc3)cc21

emission maximum (in C1CCCCC1): 398 nm
SMILES: COc1ccc2c(c1)C(C)(C)c1c-2c2ccc(OC)cc2c2cc(OC)ccc12

emission maximum (in ClC(Cl)Cl): 535 nm
SMILES: CCCCCCCCCCCC#CC#CCCCCCCCCCN1C(=O)c2ccc3c4ccc5c6c(ccc(c7ccc(c2c37)C1=O)c64)C(=O)N(CCCCCCCCCC#CC#CCCCCCCCCCCCC)C5=O

emission maximum (in CS(C)=O): 438 nm
SMILES: N#CC1=C(N)n2c(=O)c3ccccc3c(=O)n2C1c1ccccc1 (configuration not stated)

emission maximum (in C1CCOC1): 523 nm
SMILES: CCOC(=O)c1ccc(C2=CC3=c4cc(-c5ccc(C(=O)OCC)cc5)c5nc(C(F)(F)C(F)(F)C(F)(F)F)nc6c(-c7ccc(C(=O)OCC)cc7)cc(c4c65)C4=CC(c5ccc(C(=O)OCC)cc5)=C5N=C(C(F)(F)C(F)(F)C(F)(F)F)N=C2C5C43)cc1 (configuration not stated)

emission maximum (in CCO): 644 nm
emission maximum (in ClCCl): 642 nm
emission maximum (in O): 641 nm
SMILES: CC[N+](CC)=c1ccc2cc3c(oc-2c1)-c1ccc(N(C)C)cc1CC3

emission maximum (in C1CCOC1): 601 nm
SMILES: F[B-]1(F)n2c(-c3ccccc3)cc(-c3ccccc3)c2C=C2C(c3ccccc3)=CC(c3ccccc3)=[N+]21

emission maximum (in ClCCl): 498 nm
SMILES: Cc1ccc(/N=C2\N=C(N)c3cccc4cccc2c34)cc1

emission maximum (in ClCCl): 430 nm
SMILES: O=c1oc2ccccc2cc1-c1ccc(-c2ccc(-c3cc4ccccc4oc3=O)cc2)cc1

emission maximum (in C1CCOC1): 546 nm
emission maximum (in CCCCCC): 441 nm
emission maximum (in ClC(Cl)Cl): 495 nm
emission maximum (in ClCCl): 563 nm
SMILES: O=C1c2cccc3c(-n4c5ccccc5c5ccccc54)ccc(c23)C(=O)N1C1CCCCC1

emission maximum (in CC1CCCO1): 483 nm
SMILES: O=c1cc2cc(O)c3cc(O)cc4ccc(o1)c2c43

emission maximum (in ClCCl): 594 nm
SMILES: CC(C)[Si](C#Cc1c2nsnc2c(C#C[Si](C(C)C)(C(C)C)C(C)C)c2nc3c4ccccc4c(=O)c4ccccc4c3nc12)(C(C)C)C(C)C

emission maximum (in CCOC(C)=O): 434 nm
SMILES: CCn1c(-c2ccc(N(c3ccccc3)c3cccc4ccccc34)cc2)c(-c2ccc3ccccc3c2)c(-c2ccc3ccccc3c2)c1-c1ccc(N(c2ccccc2)c2cccc3ccccc23)cc1

emission maximum (in ClCCl): 676 nm
SMILES: N#C/C(=C\c1ccc(/C=C/c2ccc(N(c3ccccc3)c3ccccc3)cc2)s1)C(=O)O

Further lines, the compound ahead of its results:

SMILES: CCN(CC)c1ccc2cc(/C=C/C(=C(C#N)C#N)c3ccc(N(c4ccccc4)c4ccccc4)cc3)c(=O)oc2c1
emission maximum (in CC(C)=O): 621 nm
emission maximum (in CCOC(C)=O): 599 nm
emission maximum (in CN(C)C=O): 636 nm
emission maximum (in CS(C)=O): 643 nm
emission maximum (in Cc1ccccc1): 576 nm
emission maximum (in ClCCl): 581 nm

SMILES: N#Cc1cc(-c2ccc(F)cc2)cnc1O
emission maximum (in C1COCCO1): 422 nm
emission maximum (in CC1CCCCC1): 425 nm
emission maximum (in CC#N): 423 nm
emission maximum (in CC(C)O): 424 nm
emission maximum (in CCO): 425 nm
emission maximum (in CO): 425 nm
emission maximum (in CS(C)=O): 427 nm
emission maximum (in ClC(Cl)(Cl)Cl): 429 nm
emission maximum (in O): 425 nm

SMILES: CCn1c2ccccc2c2cc(C#Cc3cc(C#Cc4ccc5c(c4)c4ccccc4n5CC)ncn3)ccc21
emission maximum (in C1CCOC1): 451 nm
emission maximum (in CCOC(C)=O): 445 nm
emission maximum (in CN(C)C=O): 502 nm
emission maximum (in Cc1ccccc1): 411 nm
emission maximum (in ClCCl): 484 nm

SMILES: Cc1ccc2oc(-c3cc4cc(C)ccc4oc3=O)cc2c1
emission maximum (in CC#N): 445 nm
emission maximum (in CCOC(C)=O): 436 nm
emission maximum (in CS(C)=O): 448 nm
emission maximum (in Cc1ccccc1): 436 nm
emission maximum (in O): 498 nm

SMILES: CCC1=C(C)C2=Cc3c4ccccc4c4n3[B-](c3ccncc3)(Oc3ccccc3-4)[N+]2=C1C (configuration not stated)
emission maximum (in CC#N): 633 nm
emission maximum (in CCCCCC): 636 nm
emission maximum (in Cc1ccccc1): 639 nm
emission maximum (in ClCCl): 639 nm

SMILES: CC1(C)c2ccccc2N(c2ccccc2)c2ccc(S(=O)(=O)c3ccc4c(c3)C(C)(C)c3ccccc3N4c3ccccc3)cc21
emission maximum (in Cc1ccccc1): 370.45 nm
emission maximum [1]: 381 nm

SMILES: O=c1c2cc(F)c(N3CCOCC3)cc2oc2cc(N3CCOCC3)c(F)cc12
emission maximum (in CCO): 448 nm

SMILES: Cc1ccc(NC(=O)c2ccc(N(C)C)cc2)cc1
emission maximum (in C1CCCCC1): 465 nm
emission maximum (in C1CCOC1): 532 nm
emission maximum (in CC#N): 502 nm
emission maximum (in CCOCC): 518 nm

SMILES: CN(C)c1ccc(C#Cc2ccc3ccc4c(C#Cc5ccc(N(C)C)cc5)ccc5ccc2c3c54)cc1
emission maximum (in C1COCCO1): 489.2 nm
emission maximum (in CC(C)=O): 569.6 nm
emission maximum (in CCCCCC): 460.4 nm
emission maximum (in CCCCCCO): 528.2 nm
emission maximum (in CCO): 540 nm
emission maximum (in CCOC(C)=O): 523.5 nm
emission maximum (in CO): 554 nm
emission maximum (in Cc1ccccc1): 483.7 nm
emission maximum (in ClCCl): 532.8 nm

SMILES: Clc1cnc2nn3ccccc3c2n1
emission maximum (in C1CCOC1): 448 nm

SMILES: CCCN1/C(=C\c2c(-c3ccc(N(C)C)cc3)c(=O)c2=O)C=Cc2ccccc21
emission maximum (in C1CCCCC1): 428 nm
emission maximum (in Cc1ccccc1): 435 nm
emission maximum (in ClCCl): 585 nm

SMILES: COc1ccc(C2=C(c3ccc([N+](=O)[O-])cc3)C(c3ccccc3)=[N+]3C2=Nc2c(-c4ccc(OC)cc4)c(-c4ccc([N+](=O)[O-])cc4)c(-c4ccccc4)n2[B-]3(F)F)cc1
emission maximum (in Cc1ccccc1): 688 nm

SMILES: COCCOCCOc1ccc(OCCOCCOC)c(C=O)c1
emission maximum (in CC(C)(C)O): 444 nm
emission maximum (in CC(C)CO): 453 nm
emission maximum (in CC(C)O): 454 nm
emission maximum (in CCCCO): 456 nm
emission maximum (in CCCO): 460 nm
emission maximum (in CCO): 461 nm
emission maximum (in CN(C)C=O): 424 nm
emission maximum (in CNC=O): 458 nm
emission maximum (in CO): 468 nm
emission maximum (in NC=O): 463 nm
emission maximum (in O): 485 nm

SMILES: N#Cc1c(-n2c3ccccc3c3ccccc32)c(C#N)c(-n2c3ccccc3c3ccccc32)c(-n2c3ccccc3c3ccccc32)c1-n1c2ccccc2c2ccccc21
emission maximum (in Cc1ccccc1): 507 nm

SMILES: CCC1=C(C)C(=O)n2c1cc1c(c(C)c(C(=O)OCC(C)C)n1CC(C)C)c2=O
emission maximum (in C1CCCCC1): 437 nm
emission maximum (in CO): 498 nm
emission maximum (in CS(C)=O): 479 nm
emission maximum (in ClC(Cl)Cl): 457 nm
emission maximum (in c1ccccc1): 446 nm

SMILES: Cc1cc(-n2c3ccccc3c3cc4c(cc32)C2c3ccccc3C4c3ccccc32)c(C)cc1-c1nc(-c2ccccc2)nc(-c2ccccc2)n1
emission maximum (in Cc1ccccc1): 427 nm
emission maximum [1]: 442 nm

SMILES: Cc1cc(C)c2c(c1)c1cc(C)cc(C)c1n2-c1ccc2c(c1)Sc1cc3c(cc1B2c1c(C(C)C)cc(C(C)C)cc1C(C)C)B(c1c(C(C)C)cc(C(C)C)cc1C(C)C)c1ccccc1S3
emission maximum (in Cc1ccccc1): 465 nm
emission maximum (in O=P(c1ccccc1)(c1ccccc1)c1ccc2oc3ccc(P(=O)(c4ccccc4)c4ccccc4)cc3c2c1): 483 nm

SMILES: C(#Cc1ccc2ncsc2c1)c1ccc(N(c2ccccc2)c2ccccc2)cc1
emission maximum (in Cc1ccccc1): 428 nm

SMILES: Cc1cccc(C)c1/C=C/c1nc(N2CCOCC2)c2c([n+]1[O-])CCCC2
emission maximum (in ClCCl): 536 nm

SMILES: [C-]#[N+]c1ccc(-c2ccc(NC)cc2)cc1
emission maximum (in C1CCCCC1): 368 nm
emission maximum (in C1CCOC1): 406 nm
emission maximum (in C1COCCO1): 395 nm
emission maximum (in CC#N): 421 nm
emission maximum (in CC(C)=O): 427 nm
emission maximum (in CCCCCC): 366 nm
emission maximum (in CCOC(C)=O): 403 nm
emission maximum (in CN(C)C=O): 435 nm
emission maximum (in CO): 422 nm
emission maximum (in CS(C)=O): 436 nm
emission maximum (in Cc1ccccc1): 388 nm
emission maximum (in ClC(Cl)Cl): 400 nm
emission maximum (in ClCCl): 405 nm
emission maximum (in O): 458 nm
emission maximum (in c1ccncc1): 421 nm

SMILES: CC1(C)c2ccccc2N(c2ccc(-c3nnc(-c4ccc(-n5c6ccccc6c6ccccc65)cc4)o3)cc2)c2ccccc21
emission maximum (in Cc1ccccc1): 460 nm
emission maximum [1]: 479 nm

SMILES: CC1=CC(Br)=CN2C[n+]3cc(Br)cc(C)c3N=C12
emission maximum (in CO): 502 nm
